Assay results reported in patent US20240216344A1, “THIAZOLIDINEDIONE ANALOGS FOR THE TREATMENT OF NAFLD AND METABOLIC DISEASES” (Cirius Therapeutics, Inc., priority 2019, published 2024).

System: patients with NASH
Assay: Meta-analysis of 17 NASH clinical trials: change from baseline in histological components and endpoint counts
Type: in vivo, human
Conditions: EMMINENCE trial
Procedure: Meta-regressions of NASH clinical trials were performed to examine associations between biomarker and histological changes within treatment groups, and to additionally examine associations between treatment effects on biomarkers and on liver histology. Trials that met the following criteria were included: • Randomized controlled clinical trial • Paired biopsies performed at baseline and follow-up, scored using the NASH CRN system.
• Published results at baseline, follow-up, or changes from baseline for any the following liver injury markers or biomarkers: alanine aminotransferase (ALT), aspartate aminotransferase (AST), alkaline phosphatase, hemoglobin A1c (HbA1c), gamma-glutamyltransferase (GGT), insulin, cytokeratin-18 (CK-18), or Enhanced Liver Fibrosis (ELF) score. Variables selected were based on variables whose change was commonly reported in multiple studies. • Changes in histological scores for ballooning, inflammation, steatosis, and fibrosis, or the pre-determined endpoints of NASH resolution without worsening fibrosis or improvement in fibrosis with no worsening of NASH.
All results from a search of PubMed for the keywords (“nonalcoholic steatohepatitis” or “non-alcoholic steatohepatitis”) and (“clinical trial” or “randomized”) and filtered for “Clinical Trial” were reviewed. EudraCT and ClinicalTrials.gov were searched for the keyword “nonalcoholic steatohepatitis” with results further filtered for phase 2 or 3, interventional, terminated or completed trials. These three sources returned 265 (PubMed), 153 (ClinicalTrials.gov), and 56 (EudraCT) results, which were each individually reviewed for inclusion in the analysis. Data extracted by one analyst from each source that included means and SDs at baseline, end of study, and changes from baseline to end of study for continuous variables were verified and corrected by a second analyst. Where SDs were not available, any provided estimate of variation was used to derive the SD where possible; a plot-digitizer program was used where data were presented in figures only. Data for dichotomous endpoints were extracted as the number of subjects with the event and corresponding sample size.
All studies included in the current meta-analysis used the NASH CRN histological scoring system for the scoring of the liver biopsy components. The two dichotomous endpoints considered were based on the currently approvable endpoints per FDA guidelines: NASH resolution without worsening of fibrosis, and fibrosis improvement without worsening of NASH.
Random effects weighted least squares meta-regressions with inverse variance weighting were used to examine the association of changes in ALT, AST, CK-18, HbA1c, fasting insulin levels, ELF, alkaline phosphatase and GGT with biopsy outcomes. CK-18[M30] was measured in all studies except EMMINENCE where CK-18[M651 was reported. These associations were assessed at an individual cohort level (within treatment group), as well as based on the treatment effect. Percent change from baseline in liver injury makers and biomarkers was used as the predictor when examining the associations in the individual cohorts with outcomes while the treatment ratio, the ratio of active to placebo with respect to the relative changes from baseline, was used as the predictor when assessing the association with the treatment effect on outcomes. Standardized mean changes (mean/SD) or standardized mean treatment differences (mean difference/pooled SD) were used for continuous outcomes and Freeman-Tukey double arcsine transformed proportions or log odds ratios were used for dichotomous outcomes. Meta-regression results were computed using the metafor package available in R. P-values <0.05 were considered statistically significant.

## COc1cccc(C(=O)COc2ccc(CC3SC(=O)NC3=O)cc2)c1 (stereo not drawn) [MSDC-0602K]
MSDC-0602K 62.5 mg
  Change from Baseline, mean: Ballooning: −0.36
  Change from Baseline, mean: Fibrosis: 0.06
  Change from Baseline, mean: Inflammation: −0.08
  Change from Baseline, mean: Steatosis: −0.57
  Fibrosis Improvement: 20/99
  NASH Resolution: 17/99
MSDC-0602K 125 mg
  Change from Baseline, mean: Ballooning: −0.42
  Change from Baseline, mean: Fibrosis: −0.12
  Change from Baseline, mean: Inflammation: −0.22
  Change from Baseline, mean: Steatosis: −0.51
  Fibrosis Improvement: 23/98
  NASH Resolution: 23/98
MSDC-0602K 250 mg
  Change from Baseline, mean: Ballooning: −0.38
  Change from Baseline, mean: Fibrosis: −0.06
  Change from Baseline, mean: Inflammation: −0.12
  Change from Baseline, mean: Steatosis: −0.67
  Fibrosis Improvement: 25/101
  NASH Resolution: 27/101
